In PubChem BioAssay (NCI):
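Method: 48-hour compound exposure of cells in 96-well plates, five concentrations, linear interpolation of endpoints. The concentration for 50% growth inhibition is given as GI50. TGI denotes the concentration required for complete inhibition of growth.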

How the values were obtained:
Test in all cases: DTP human tumour cell line panel, 48 h
NCI-H460 lung = system: NCI-H460 lung
786-0 renal = system: 786-0 renal
UACC-62 melanoma = system: UACC-62 melanoma
SR leukemia = system: SR leukemia
UACC-257 melanoma = system: UACC-257 melanoma
MCF7 breast = system: MCF7 breast
SF-268 CNS = system: SF-268 CNS
SNB-19 CNS = system: SNB-19 CNS
MDA-MB-435 = system: MDA-MB-435
SF-295 CNS = system: SF-295 CNS
SK-MEL-2 melanoma = system: SK-MEL-2 melanoma
OVCAR-4 ovarian = system: OVCAR-4 ovarian
SNB-75 CNS = system: SNB-75 CNS
RPMI-8226 leukemia = system: RPMI-8226 leukemia
HS 578T breast = system: HS 578T breast
SN12C renal = system: SN12C renal
BT-549 breast = system: BT-549 breast
OVCAR-8 ovarian = system: OVCAR-8 ovarian
NCI-H23 lung = system: NCI-H23 lung
M14 melanoma = system: M14 melanoma
U251 CNS = system: U251 CNS
HCT-116 colon = system: HCT-116 colon
HL-60(TB) leukemia = system: HL-60(TB) leukemia
NCI-H522 lung = system: NCI-H522 lung
SK-MEL-28 melanoma = system: SK-MEL-28 melanoma
A549 NSCLC = system: A549 NSCLC
TK-10 renal = system: TK-10 renal
KM12 colon = system: KM12 colon
UO-31 renal = system: UO-31 renal

## O=[N+]([O-])c1ccc(-c2nnc(SCc3ccc(O)c4ncccc34)o2)cc1
NCI-H460 lung
  GI50: 260 nM
  TGI: > 62700 nM
786-0 renal
  GI50: 674 nM
  TGI: > 100000 nM
UACC-62 melanoma
  GI50: 810 nM
  TGI: 12600 nM
SR leukemia
  GI50: 424 nM
  TGI: > 100000 nM
UACC-257 melanoma
  GI50: 511 nM
  TGI: 27500 nM
MCF7 breast
  GI50: 224 nM
  TGI: > 100000 nM
SF-268 CNS
  GI50: 608 nM
  TGI: > 100000 nM
SNB-19 CNS
  GI50: 351 nM
  TGI: > 100000 nM
MDA-MB-435
  GI50: 331 nM
  TGI: > 100000 nM
SF-295 CNS
  GI50: 315 nM
  TGI: > 100000 nM
SK-MEL-2 melanoma
  GI50: 390 nM
OVCAR-4 ovarian
  GI50: 1010 nM
  TGI: > 100000 nM
SNB-75 CNS
  GI50: 386 nM
  TGI: > 100000 nM
RPMI-8226 leukemia
  GI50: 402 nM
  TGI: > 100000 nM
HS 578T breast
  GI50: 417 nM
  TGI: > 100000 nM
SN12C renal
  GI50: 326 nM
  TGI: > 100000 nM
BT-549 breast
  GI50: 237 nM
  TGI: > 100000 nM
OVCAR-8 ovarian
  GI50: 310 nM
  TGI: > 100000 nM
NCI-H23 lung
  GI50: 407 nM
  TGI: > 100000 nM
M14 melanoma
  GI50: 455 nM
  TGI: 7560 nM
U251 CNS
  GI50: 181 nM
  TGI: > 100000 nM
HCT-116 colon
  GI50: 189 nM
  TGI: > 100000 nM
HL-60(TB) leukemia
  GI50: 425 nM
NCI-H522 lung
  GI50: 381 nM
  TGI: > 100000 nM
SK-MEL-28 melanoma
  GI50: 1120 nM
  TGI: > 100000 nM
A549 NSCLC
  GI50: 378 nM
  TGI: > 100000 nM
TK-10 renal
  GI50: 785 nM
  TGI: > 100000 nM
KM12 colon
  GI50: 572 nM
  TGI: > 100000 nM
UO-31 renal
  GI50: 347 nM
